# Measurements as given in PubChem BioAssay (NCI).
#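 Tested at 5 concentrations; 48 h exposure; 96-well plates; endpoints linearly interpolated, else capped at highest concentration. GI50: concentration for 50% inhibition of growth. TGI: total growth inhibition.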
# Legend:
# Test in all cases: growth of human tumour cells (NCI), 48 h
# NCI-H23 lung = system: NCI-H23 lung
# HOP-62 NSCLC = system: HOP-62 NSCLC
# SN12C renal = system: SN12C renal
# MDA-MB-435 = system: MDA-MB-435
# EKVX NSCLC = system: EKVX NSCLC
# A549 NSCLC = system: A549 NSCLC
# UACC-62 melanoma = system: UACC-62 melanoma
# OVCAR-5 ovarian = system: OVCAR-5 ovarian
# OVCAR-8 ovarian = system: OVCAR-8 ovarian
# HCC-2998 colon = system: HCC-2998 colon
SMILES,GI50 (NCI-H23 lung),TGI (NCI-H23 lung),GI50 (HOP-62 NSCLC),TGI (HOP-62 NSCLC),GI50 (SN12C renal),TGI (SN12C renal),GI50 (MDA-MB-435),TGI (MDA-MB-435),GI50 (EKVX NSCLC),TGI (EKVX NSCLC),GI50 (A549 NSCLC),TGI (A549 NSCLC),GI50 (UACC-62 melanoma),TGI (UACC-62 melanoma),GI50 (OVCAR-5 ovarian),TGI (OVCAR-5 ovarian),GI50 (OVCAR-8 ovarian),TGI (OVCAR-8 ovarian),GI50 (HCC-2998 colon),TGI (HCC-2998 colon)
CCOCCc1c(O)nc(SC)[nH]c1=O,> 100 µM,> 100 µM,> 100 µM,> 100 µM,> 100 µM,> 100 µM,> 100 µM,> 100 µM,> 100 µM,> 100 µM,> 100 µM,> 100 µM,> 100 µM,> 100 µM,> 100 µM,> 100 µM,> 100 µM,> 100 µM,> 100 µM,> 100 µM
Fc1ccc(-c2ncn(C3CCNCC3)c2-c2ccnc(Oc3ccccc3)n2)cc1,> 25 µM,> 25 µM,> 25 µM,> 25 µM,18.5 µM,> 25 µM,17.8 µM,> 25 µM,> 25 µM,> 25 µM,20.1 µM,> 25 µM,> 25 µM,> 25 µM,22.3 µM,> 25 µM,> 25 µM,> 25 µM,12.8 µM,> 25 µM
CCOC(=O)c1c[nH]c2c(OCc3ccccc3)c3ccccc3c(O)c2c1=O,6.75 µM,28.6 µM,14.4 µM,42.9 µM,22.2 µM,> 100 µM,6.44 µM,15.6 µM,6.98 µM,52.7 µM,9.33 µM,> 56 µM,3.1 µM,15.8 µM,54.7 µM,> 100 µM,5.6 µM,41.3 µM,37.4 µM,> 100 µM
O=C(/C=C/c1ccccn1)c1ccccc1O,2.35 µM,8.76 µM,2.4 µM,6.15 µM,2.8 µM,9.36 µM,1.69 µM,3.41 µM,5.22 µM,21.8 µM,5.37 µM,20.4 µM,1.82 µM,3.87 µM,2.43 µM,6.8 µM,3.34 µM,12.2 µM,1.7 µM,3.07 µM
CC1(C)CC[C@]2(C(=O)n3ccnc3)CC[C@]3(C)[C@H](C(=O)C=C4[C@@]5(C)C=C(C#N)C(=O)C(C)(C)[C@@H]5CC[C@]43C)[C@@H]2C1,< 0.0151 µM,0.0786 µM,0.0105 µM,0.0402 µM,< 0.0177 µM,0.0404 µM,< 0.0148 µM,0.0373 µM,0.141 µM,0.545 µM,< 0.0214 µM,–,< 0.014 µM,< 0.0336 µM,0.0103 µM,0.137 µM,< 0.01 µM,–,< 0.01 µM,< 0.01 µM
CSC(=S)N/N=C/c1ccccc1,–,> 100 µM,–,> 100 µM,–,> 100 µM,–,> 100 µM,–,> 100 µM,–,> 100 µM,–,> 100 µM,–,> 100 µM,–,> 100 µM,–,> 100 µM
Cc1cc(Cl)ccc1NC(=O)/C(Cl)=C(/Cl)C(=O)O,–,67.8 µM,–,47.7 µM,–,35 µM,–,45.9 µM,–,39.9 µM,–,> 100 µM,–,48.8 µM,–,36.2 µM,–,34.2 µM,–,39.3 µM
COc1ccc(S(=O)(=O)N2CCN(C(=O)OCc3ccccc3)CC2C(=O)NO)cc1 (stereo not drawn),> 25 µM,> 25 µM,> 25 µM,> 25 µM,> 25 µM,> 25 µM,13.4 µM,> 25 µM,6.18 µM,> 25 µM,> 25 µM,> 25 µM,> 25 µM,> 25 µM,> 25 µM,> 25 µM,> 25 µM,> 25 µM,> 25 µM,> 25 µM
C(=N/Nc1ncnc2nc[nH]c12)/c1ccccn1,2.91 µM,> 100 µM,0.687 µM,> 100 µM,0.84 µM,> 65.1 µM,1.08 µM,> 100 µM,0.386 µM,40.5 µM,1.27 µM,> 100 µM,0.514 µM,3.24 µM,1.02 µM,> 100 µM,0.393 µM,> 100 µM,0.422 µM,> 36.8 µM
C=C1C(=O)O[C@H]2[C@H]1CC/C(COC(=O)/C=C\C(=O)NCc1ccc(Cn3c(=O)sn(-c4ccc(OC)cc4)c3=O)cc1)=C\CC[C@@]1(C)O[C@@H]21,0.863 µM,1.84 µM,2.76 µM,10 µM,0.636 µM,1.46 µM,0.642 µM,1.32 µM,0.773 µM,1.51 µM,0.938 µM,2.88 µM,0.7 µM,1.41 µM,0.825 µM,1.71 µM,0.755 µM,2.62 µM,0.881 µM,1.67 µM
C[N+](C)(C)CCC(=O)N1C/C(=C\c2ccccc2)C(=O)/C(=C/c2ccccc2)C1,–,23.3 µM,–,33.6 µM,–,4.59 µM,–,5.49 µM,–,35.9 µM,–,32.1 µM,–,10.3 µM,–,30.6 µM,–,8.44 µM,–,13.2 µM
O=C(Nc1ccc(Cl)c(Cl)c1)C(=O)C(C1OC(=O)c2ccccc21)[N+](=O)[O-] (stereo not drawn),–,> 100 µM,–,> 100 µM,–,> 100 µM,–,> 100 µM,–,> 100 µM,–,> 100 µM,–,> 100 µM,–,> 100 µM,–,> 100 µM,–,> 100 µM
O=C(Nc1ncc(Cc2ccccc2)s1)c1ccc2c(c1)OCCO2,0.0679 µM,> 100 µM,0.078 µM,> 100 µM,0.0748 µM,> 100 µM,0.0187 µM,0.0436 µM,0.133 µM,> 100 µM,0.0616 µM,> 100 µM,0.0465 µM,12.3 µM,0.096 µM,> 100 µM,0.0591 µM,> 100 µM,0.0729 µM,1.63 µM
